{
  "source": "patent US20240208901A1",
  "about": "“Deuterated 3,3'-Diselenodipropionic Acid (DSePA) and Its Use as an Anticancer or Radioprotective Agent” (Secretary, Department of Atomic Energy, priority 2022, published 2024)",
  "key": {"[1]": {"tested_on": "non-cancerous human lung fibroblast cells (WI-38 & WI-26 VA4)", "test": "MTT assay, non-cancerous human lung fibroblast cells (summary statement)", "assay_type": "cell-based", "conditions": "WI-38 & WI-26 VA4 cells", "text": "3,3′-Disclenodipropionic acid-D8 (D-DSePA, chemical structure shown in FIG. 1) was synthesized by reacting freshly prepared sodium selenide (Na2Se2) and 3-bromopropionic acid-D4 in D2O solvent with 42% yield. The synthesized D-DSePA was purified and characterized by NMR spectroscopy and mass spectrometry. The molecular structure of D-DSePA has been established by single-crystal X-ray diffraction analysis. The treatment of D-DSePA and un-deuterated DSePA inhibited the growth of human NSCLC cells such as A549, H1975 and H3122 with half maximum concentration (IC50) in the range of 5-50 μM by MTT assay. […] Finally, at identical treatment concentration, D-DSePA offered better radioprotection to non-cancerous WI38 cells with a dose modification factor (DMF) of 1.16±0.05 as compared to un-deuterated DScPA with DMF of 1.12±0.03.\nMTT Assay—To evaluate the anti-proliferative effect of D-DScPA and DScPA, Cells (˜5×10^3) suspended in 100 μl of complete culture medium were seeded in each well of 96 well plates. […] The percentage (%) cytotoxicity was calculated from the decrease in absorbance at 570 nm of treated groups as compared to that of control group. […] The therapeutic index was calculated by normalizing the IC50 concentration of D-DSePA/DSePA in non-cancerous cells to that in cancerous cells."}, "[2]": {"tested_on": "lung cancer cell lines (A549, H1975 and H3122) versus normal lung cells (WI-38 and WI-26 VA4)", "test": "Therapeutic index by MTT assay, lung cancer cell lines versus normal lung cells", "assay_type": "cell-based, human", "conditions": "for Therapeutic Index (IC50 in normal cell / IC50 in cancer cells): 48 h post-treatment", "method": "Therefore, D-DSePA was compared with un-deuterated DSePA for its anticancer activity in A549, H1975 and H3122 cell lines which are representative of NSCLC. For this, above cells were treated with the varying concentrations (0.1-100 μM) of DSePA/D-DSePA for 48 h and the cell viability was determined by MTT assay (FIG. 9A-C). The plot of percent (%) cytotoxicity (100-% viability) versus the concentration of DSePA/D-DSePA was used to estimate the half maximum concentration (IC50) of above compounds to inhibit the proliferation of cells. […] Similarly, the toxicity of DSePA/D-DSePA was studied in non-cancerous lung fibroblast cells, WI-38 and WI-26 VA4 in the concentration range of 0.1 to 1000 μM at 48 h post treatment by MTT assay (FIG. 9D and 9E). […] Employing these values, the therapeutic index (IC50 in normal lung cell/IC50 in lung cancer cell) of DSePA and D-DSePA in different pairs of normal versus cancerous cells (viz., A549/WI-38, A549/WI-26 VA4, H1975/WI-38, H1975/WI-26 VA4, H3122/WI-38 and H3122/WI-26 VA4) was calculated (Table-3). […] The average therapeutic index of DSePA and D-DSePA estimated from above study was 11.05±1.5 and 78.7±29.2 respectively (FIG. 10).\nMTT Assay—To evaluate the anti-proliferative effect of D-DScPA and DScPA, Cells (˜5×10^3) suspended in 100 μl of complete culture medium were seeded in each well of 96 well plates. The cells were allowed to attach and grow for 24 h, treated with desired concentrations of D-DSePA/DScPA dissolved in culture medium for 48 h and then processed for MTT assay as described in literature. The percentage (%) cytotoxicity was calculated from the decrease in absorbance at 570 nm of treated groups as compared to that of control group. The % cytotoxicity was plotted as a function of the concentration of D-DSePA and DSePA and from this curve, the concentration of D-DSePA/DScPA causing 50% toxicity (IC50) was estimated. The therapeutic index was calculated by normalizing the IC50 concentration of D-DSePA/DSePA in non-cancerous cells to that in cancerous cells."}, "[3]": {"tested_on": "A549 cells", "test": "Clonogenic assay, combinatorial treatment with γ-irradiation in A549 cells", "assay_type": "cell-based, human", "method": "Further, clonogenic assay is considered as the gold standard method for evaluating the anticancer activity of any compound and is also a good indicator of the in vivo efficacy of any anticancer compound. Therefore, the therapeutic index of DSePA and D-DSePA in A549/WI-38 cells was also validated by employing the clonogenic assay. For this, A549/WI-38 cells were treated with the varying concentrations (0.1-2 μM)/(1-500 μM) of DSePA/D-DSePA for seven days and the survival fraction was calculated by counting the number of surviving clones (FIG. 11A). The plot of survival fraction verses the concentration of DScPA/D-DSCPA was used to estimate the IC50 of above compounds to inhibit the growth of A549/WI-38 cells. […] This clearly confirmed that deuteration of DScPA reduced its toxicity in normal cells without compromising its efficacy in cancer cells. Since anticancer agents are intended to be used in combination with radiation, DSePA/D-DSePA at a treatment concentration of 0.5 μM (dose close to IC50 as determined by clonogenic assay) was combined with varying absorbed doses (2-8 Gy) of γ-irradiation and the effect of combinatorial treatment on the viability of A549 cells was determined by clonogenic assay (FIG. 12A & 12B). For this, A549 cells exposed to the varying absorbed doses (2-8 Gy) of γ-radiation were immediately treated with DScPA/D-DScPA and cultured for seven days prior to clonogenic assay. […] The D10 value of the combinatorial treatment involving DScPA estimated was 4.5 Gy (FIG. 12B). Similarly, D10 value of the combinatorial treatment involving D-DSePA estimated was 4 Gy. From these values, the dose modification factor (DMF or the ratio of the D10 of combinatorial treatment to that of D10 of radiation) of DScPA and D-DScPA estimated was 0.87±0.01 and 0.83±0.02 respectively. […] While the objective of radiotherapy is to achieve tumor control, it is also known to cause normal tissue toxicity. Previously, DSePA has been reported to protect normal cells from lethal effects of γ-radiation. Thus radio-protective activity of D-DSePA was compared with DScPA in terms of their abilities to protect non-cancerous lung fibroblast (WI-38) cells against γ-irradiation induced cell death. For this, WI-38 cells were pretreated with DSePA/D-DScPA for 24 h at an identical concentration of 0.5 μM (close to IC50 required to inhibit growth of A549 lung cancer cells by clonogenic assay) and then exposed to varying doses (2-12 Gy) of γ-irradiation. The survival of cells against radiation exposure was estimated by clonogenic assay and the dose response curve was prepared in the presence and absence of drug (DSePA/D-DScPA) (FIG. 12C & 12D). By using this dose response curve, the dose modification factor (DMF or the ratio of the D10 of radiation plus drug and D10 of radiation alone) of DSePA and D-DSePA estimated was 1.12±0.03 and 1.16±0.05 respectively.\n(§1) Clonogenic assay—Clonogenic assay was performed according to the method reported previously. […] After 7 days, colonies were fixed with absolute methanol for 5 min, stained with 0.5% crystal violet for 5 min, washed with distilled water to remove excess stain and counted manually under a stereo microscope. […] The plating efficiency and the survival fraction under irradiated and drug treated conditions were calculated using following formulae: […]\n(§2) The plating efficiency of A549 and WI38 cells was calculated by seeding ˜300 and ˜500 cells respectively. […]"}, "[4]": {"tested_on": "WI-38 cells", "test": "Clonogenic assay, radioprotection of WI-38 cells against γ-irradiation", "assay_type": "cell-based, human", "conditions": "γ-irradiation 2-12 Gy", "method": "Further, clonogenic assay is considered as the gold standard method for evaluating the anticancer activity of any compound and is also a good indicator of the in vivo efficacy of any anticancer compound. Therefore, the therapeutic index of DSePA and D-DSePA in A549/WI-38 cells was also validated by employing the clonogenic assay. For this, A549/WI-38 cells were treated with the varying concentrations (0.1-2 μM)/(1-500 μM) of DSePA/D-DSePA for seven days and the survival fraction was calculated by counting the number of surviving clones (FIG. 11A). The plot of survival fraction verses the concentration of DScPA/D-DSCPA was used to estimate the IC50 of above compounds to inhibit the growth of A549/WI-38 cells. […] This clearly confirmed that deuteration of DScPA reduced its toxicity in normal cells without compromising its efficacy in cancer cells. Since anticancer agents are intended to be used in combination with radiation, DSePA/D-DSePA at a treatment concentration of 0.5 μM (dose close to IC50 as determined by clonogenic assay) was combined with varying absorbed doses (2-8 Gy) of γ-irradiation and the effect of combinatorial treatment on the viability of A549 cells was determined by clonogenic assay (FIG. 12A & 12B). For this, A549 cells exposed to the varying absorbed doses (2-8 Gy) of γ-radiation were immediately treated with DScPA/D-DScPA and cultured for seven days prior to clonogenic assay. […] The D10 value of the combinatorial treatment involving DScPA estimated was 4.5 Gy (FIG. 12B). […]\nas §1, §2"}},
  "data": [
    {"smiles": "[2H]C([2H])([Se][Se]C([2H])([2H])C([2H])([2H])C(=O)O)C([2H])([2H])C(=O)O", "note": "[D-DSePA, 3,3′-diselenodipropionic acid-D8]", "values": [
      {"measurement": "IC50 higher as compared to un-deuterated DSePA", "setting": "[1]", "value": "4 to 5", "unit": "times"},
      {"measurement": "Therapeutic Index (IC50 in normal cell / IC50 in cancer cells)", "setting": "[2]; A549/WI-26 VA4, MTT assay", "value": "36.2 ± 1.9"},
      {"measurement": "Therapeutic Index (IC50 in normal cell / IC50 in cancer cells)", "setting": "[2]; A549/WI-38, MTT assay", "value": "65.7 ± 3.3"},
      {"measurement": "Therapeutic Index (IC50 in normal cell / IC50 in cancer cells)", "setting": "[2]; H1975/WI-26 VA4, MTT assay", "value": "119.6 ± 5.9"},
      {"measurement": "Therapeutic Index (IC50 in normal cell / IC50 in cancer cells)", "setting": "[2]; H1975/WI-38, MTT assay", "value": "217.4 ± 10.9"},
      {"measurement": "Therapeutic Index (IC50 in normal cell / IC50 in cancer cells)", "setting": "[2]; H3122/WI-26 VA4, MTT assay", "value": "11.8 ± 0.6"},
      {"measurement": "Therapeutic Index (IC50 in normal cell / IC50 in cancer cells)", "setting": "[2]; H3122/WI-38, MTT assay", "value": "21.5 ± 1.0"},
      {"measurement": "average therapeutic index", "setting": "[2]; mean of six normal/cancer cell pairs, mean±SEM (n=6), MTT assay", "value": "78.7±29.2"},
      {"measurement": "higher therapeutic index as compared to un-deuterated DSePA", "setting": "[2]; non-cancerous lung fibroblast versus NSCLC (A549, H1975 and H3122)", "value": "~7", "unit": "folds"},
      {"measurement": "dose modification factor (DMF, D10 of combinatorial treatment / D10 of radiation)", "setting": "[3]; 0.5 μM drug immediately after γ-radiation (2-8 Gy)", "value": "0.83±0.02"},
      {"measurement": "effect on radiation kill of lung cancer cells", "setting": "[3]; 0.5 μM with γ-radiation 2-8 Gy", "value": "did not protect lung cancer cells from radiation kill"},
      {"measurement": "D10 value (decimal reduction dose) of the combinatorial treatment", "setting": "[3]; γ-radiation 2-8 Gy then 0.5 μM drug immediately, seven days, radiation alone D10 5 Gy", "value": 4, "unit": "Gy"},
      {"measurement": "dose modification factor (DMF, D10 of radiation plus drug / D10 of radiation alone)", "setting": "[4]; WI-38 cells pretreated 24 h with 0.5 μM drug, clonogenic assay", "value": "1.16±0.05"},
      {"measurement": "radioprotective activity in normal lung cells", "setting": "[4]; WI-38 cells, 0.5 μM 24 h pre-treatment", "value": "exhibited radioprotective activity in normal lung cells"}
    ]}
  ]
}
